Reference: PubChem BioAssay AID1963838 (Molecular Pharmacology Branch, DTP, NCI, 2024)

System: 855422-203-R-J1-PDC complex spheroid viability
Assay: Anticancer human tumor 855422-203-R-J1-PDC patient-derived bladder carcinoma cell line growth inhibition [POLQ]
Settings: for IC50: curve of first compound; for viability, T/C: stronger effect = lower value
Outline: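 Three-cell-type spheroids modelling solid tumor plus stroma served as the readout system; POL inhibitors were tested individually and in combination, concentration ranges set by clinical Cmax where known.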

[1] = second compound 0.0316 µM, first compound 0.0316 µM
[2] = second compound 0.0316 µM, first compound 0.1 µM
[3] = second compound 0.0316 µM, first compound 0.316 µM
[4] = second compound 0.0316 µM, first compound 1 µM
[5] = second compound 0.0316 µM, first compound 3.16 µM
[6] = second compound 0.0316 µM, first compound 10 µM
[7] = second compound 0.1 µM, first compound 0.0316 µM
[8] = second compound 0.1 µM, first compound 0.1 µM
[9] = second compound 0.1 µM, first compound 0.316 µM
[10] = second compound 0.1 µM, first compound 1 µM
[11] = second compound 0.1 µM, first compound 3.16 µM
[12] = second compound 0.1 µM, first compound 10 µM
[13] = second compound 0.316 µM, first compound 0.0316 µM
[14] = second compound 0.316 µM, first compound 0.1 µM
[15] = second compound 0.316 µM, first compound 0.316 µM
[16] = second compound 0.316 µM, first compound 1 µM
[17] = second compound 0.316 µM, first compound 3.16 µM
[18] = second compound 0.316 µM, first compound 10 µM
[19] = second compound 1 µM, first compound 0.0316 µM
[20] = second compound 1 µM, first compound 0.1 µM
[21] = second compound 1 µM, first compound 0.316 µM
[22] = second compound 1 µM, first compound 1 µM
[23] = second compound 1 µM, first compound 3.16 µM
[24] = second compound 1 µM, first compound 10 µM
[25] = second compound 3.16 µM, first compound 0.0316 µM
[26] = second compound 3.16 µM, first compound 0.1 µM
[27] = second compound 3.16 µM, first compound 0.316 µM
[28] = second compound 3.16 µM, first compound 1 µM
[29] = second compound 3.16 µM, first compound 3.16 µM
[30] = second compound 3.16 µM, first compound 10 µM
[31] = second compound 10 µM, first compound 0.0316 µM
[32] = second compound 10 µM, first compound 0.1 µM
[33] = second compound 10 µM, first compound 0.316 µM
[34] = second compound 10 µM, first compound 1 µM
[35] = second compound 10 µM, first compound 3.16 µM
[36] = second compound 10 µM, first compound 10 µM
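Note: spheroids exposed to compounds for seven days before readout.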

COc1cc2cc(C(=O)CCC(=O)O)sc2cc1OC + Cc1cccc(N(C)C(=O)C2C(O)CCN2c2nc(C)cc(C(F)(F)F)c2C#N)c1
IC50 (second compound 0.0316 µM): > 10 µM
IC50 (second compound 0.1 µM): > 10 µM
IC50 (second compound 0.316 µM): > 10 µM
IC50 (second compound 1 µM): > 10 µM
IC50 (second compound 3.16 µM): > 10 µM
IC50 (second compound 10 µM): > 10 µM
viability, T/C [1]: 111%
viability, T/C [2]: 118%
viability, T/C [3]: 106%
viability, T/C [4]: 94%
viability, T/C [5]: 108%
viability, T/C [6]: 113%
viability, T/C [7]: 108%
viability, T/C [8]: 118%
viability, T/C [9]: 100%
viability, T/C [10]: 108%
viability, T/C [11]: 122%
viability, T/C [12]: 125%
viability, T/C [13]: 96.6%
viability, T/C [14]: 149%
viability, T/C [15]: 103%
viability, T/C [16]: 95.5%
viability, T/C [17]: 116%
viability, T/C [18]: 102%
viability, T/C [19]: 85.4%
viability, T/C [20]: 131%
viability, T/C [21]: 102%
viability, T/C [22]: 129%
viability, T/C [23]: 112%
viability, T/C [24]: 89.2%
viability, T/C [25]: 118%
viability, T/C [26]: 122%
viability, T/C [27]: 102%
viability, T/C [28]: 126%
viability, T/C [29]: 129%
viability, T/C [30]: 120%
viability, T/C [31]: 108%
viability, T/C [32]: 127%
viability, T/C [33]: 121%
viability, T/C [34]: 114%
viability, T/C [35]: 114%
viability, T/C [36]: 114%

COc1ccc([C@@H](O)c2cc(-c3ncnc4cc(N5CCOCC5)ccc34)c(F)cc2Cl)nn1 + Cc1cccc(N(C)C(=O)C2C(O)CCN2c2nc(C)cc(C(F)(F)F)c2C#N)c1
IC50 (second compound 0.0316 µM): 5.34 µM
IC50 (second compound 0.1 µM): 5.16 µM
IC50 (second compound 0.316 µM): 4.25 µM
IC50 (second compound 1 µM): 3.05 µM
IC50 (second compound 3.16 µM): 4.18 µM
IC50 (second compound 10 µM): 2.37 µM
viability, T/C [1]: 98.5%
viability, T/C [2]: 109%
viability, T/C [3]: 107%
viability, T/C [4]: 84.7%
viability, T/C [5]: 66.1%
viability, T/C [6]: 32.7%
viability, T/C [7]: 93.1%
viability, T/C [8]: 101%
viability, T/C [9]: 83.8%
viability, T/C [10]: 87.7%
viability, T/C [11]: 63.9%
viability, T/C [12]: 30.1%
viability, T/C [13]: 101%
viability, T/C [14]: 111%
viability, T/C [15]: 104%
viability, T/C [16]: 82.3%
viability, T/C [17]: 58.1%
viability, T/C [18]: 31.2%
viability, T/C [19]: 98.8%
viability, T/C [20]: 97.2%
viability, T/C [21]: 99.7%
viability, T/C [22]: 86.5%
viability, T/C [23]: 49%
viability, T/C [24]: 26.3%
viability, T/C [25]: 108%
viability, T/C [26]: 106%
viability, T/C [27]: 89%
viability, T/C [28]: 79.5%
viability, T/C [29]: 56.2%
viability, T/C [30]: 29.6%
viability, T/C [31]: 96.4%
viability, T/C [32]: 105%
viability, T/C [33]: 96.5%
viability, T/C [34]: 66.8%
viability, T/C [35]: 47%
viability, T/C [36]: 28.8%

O=C(Nc1ccc(O)c(NS(=O)(=O)c2ccc(F)cc2)c1)c1ccc(-c2ccccc2)cc1 + Cc1cccc(N(C)C(=O)C2C(O)CCN2c2nc(C)cc(C(F)(F)F)c2C#N)c1
IC50 (second compound 0.0316 µM): > 10 µM
IC50 (second compound 0.1 µM): > 10 µM
IC50 (second compound 0.316 µM): > 10 µM
IC50 (second compound 1 µM): > 10 µM
IC50 (second compound 3.16 µM): > 10 µM
IC50 (second compound 10 µM): 7.89 µM
viability, T/C [1]: 113%
viability, T/C [2]: 107%
viability, T/C [3]: 95%
viability, T/C [4]: 85.3%
viability, T/C [5]: 106%
viability, T/C [6]: 66.2%
viability, T/C [7]: 110%
viability, T/C [8]: 122%
viability, T/C [9]: 98.5%
viability, T/C [10]: 92.8%
viability, T/C [11]: 109%
viability, T/C [12]: 58.4%
viability, T/C [13]: 99%
viability, T/C [14]: 104%
viability, T/C [15]: 108%
viability, T/C [16]: 111%
viability, T/C [17]: 128%
viability, T/C [18]: 60.8%
viability, T/C [19]: 97.5%
viability, T/C [20]: 123%
viability, T/C [21]: 91.6%
viability, T/C [22]: 105%
viability, T/C [23]: 115%
viability, T/C [24]: 59.7%
viability, T/C [25]: 88.6%
viability, T/C [26]: 124%
viability, T/C [27]: 125%
viability, T/C [28]: 105%
viability, T/C [29]: 120%
viability, T/C [30]: 52.7%
viability, T/C [31]: 125%
viability, T/C [32]: 110%
viability, T/C [33]: 125%
viability, T/C [34]: 106%
viability, T/C [35]: 111%
viability, T/C [36]: 34.1%

COc1cccc2c1C(=O)c1c(O)c3c(c(O)c1C2=O)CC(O)(C(=O)CO)CC3OC1CC(N)C(O)C(C)O1 (stereo not drawn) + Nc1ccc(C#CCN(C(=O)Cc2ncc(C(F)(F)F)cc2C(F)(F)F)c2ccc(F)cc2)nn1
IC50 (second compound 0.0316 µM): < 0.0316 µM
IC50 (second compound 0.1 µM): < 0.0316 µM
IC50 (second compound 0.316 µM): < 0.0316 µM
IC50 (second compound 1 µM): < 0.0316 µM
IC50 (second compound 3.16 µM): < 0.0316 µM
IC50 (second compound 10 µM): < 0.0316 µM
viability, T/C [1]: 26.2%
viability, T/C [2]: 12.8%
viability, T/C [3]: 3.75%
viability, T/C [4]: 0.9%
viability, T/C [5]: 1.51%
viability, T/C [6]: 4.81%
viability, T/C [7]: 25.7%
viability, T/C [8]: 12.2%
viability, T/C [9]: 3.22%
viability, T/C [10]: 0.93%
viability, T/C [11]: 1.37%
viability, T/C [12]: 3.69%
viability, T/C [13]: 26%
viability, T/C [14]: 12.8%
viability, T/C [15]: 2.51%
viability, T/C [16]: 0.82%
viability, T/C [17]: 1.39%
viability, T/C [18]: 5.31%
viability, T/C [19]: 24.3%
viability, T/C [20]: 11.5%
viability, T/C [21]: 4.7%
viability, T/C [22]: 0.92%
viability, T/C [23]: 1.13%
viability, T/C [24]: 6.67%
viability, T/C [25]: 26.3%
viability, T/C [26]: 12.7%
viability, T/C [27]: 4.52%
viability, T/C [28]: 1.14%
viability, T/C [29]: 1.38%
viability, T/C [30]: 4.89%
viability, T/C [31]: 21.4%
viability, T/C [32]: 12.1%
viability, T/C [33]: 2.85%
viability, T/C [34]: 2.62%
viability, T/C [35]: 1.74%
viability, T/C [36]: 5.86%
